This is an account of results in article PMC5881522, “Molecular Defects in Cardiac Myofilament Ca^2+-Regulation Due to Cardiomyopathy-Linked Mutations Can Be Reversed by Small Molecules Binding to Troponin” (Frontiers in Physiology, 2018).

Structures are written as SMILES. Entries after “also recorded” stand apart in the source; their conditions may differ.

In assay [1] the target is T1, tropomyosin E180G mutant-containing thin filaments (Homo sapiens, UniProt P19429+P45379+P63316).
T1 construct: isolate troponin from 100 mg of donor heart tissue; from tissue; host or cells: troponin: human donor heart; tropomyosin: baculovirus/Sf9 (gift); actin: rabbit fast-twitch skeletal muscle
The assay can be described thus: Single [Ca2+] in vitro motility assay screen for re-coupling. It is filed as biochemical. The note with it: for Coupling Difference (Initial Screen E180G): 100 μM compound, difference between motility (%) in phosphorylated and unphosphorylated thin filaments, TPM1 E180G, >10% = re-coupling; for Coupling Difference (Initial Screen E180G) / re-coupling activity (in words): 0.037 μM Ca2+; for re-coupling activity (in words): E180G thin filaments. The procedure: (§1) Thin filaments were reconstituted with 10 nM rabbit skeletal or mouse cardiac muscle α-actin (labeled with TRITC phalloidin), tropomyosin (40–60 nM), and troponin (60 nM) to study Ca^2+-regulation of filament motility by the quantitative in vitro motility assay (IVMA) (Fraser and Marston, [1995]; Messer et al., [2007]). Thin filament movement over a bed of immobilized rabbit fast skeletal muscle heavy meromyosin (100 μg/ml) was compared in paired motility cells, in which troponin varied by a single factor (mutation, phosphorylation state, or treatment with drug). The temperature was set to 29°C. Filament movement was recorded and analyzed as previously described (Marston et al., [1996]), yielding two parameters, the fraction of filaments moving and the speed of moving filaments. Only the fraction of filaments motile is used in this study.
For drug screening, motility was measured with paired phosphorylated and unphosphorylated tropomyosin E180G mutant-containing thin filaments at a fixed 0.037 μM Ca^2+. Most assays were single measurements.
For the rapid screening of compounds, we devised a single Ca^2+ concentration assay. This is illustrated in Figures 2A,B for quercetin. The test system contains skeletal muscle actin, human sequence recombinant tropomyosin 1.1 containing the E180G HCM-associated mutation and human cardiac troponin from donor hearts in the phosphorylated and unphosphorylated form. At 0.037 μM Ca^2+ the filaments are about 40% motile irrespective of phosphorylation level whilst when quercetin is added the phosphorylated Ca^2+ activity curve shifts to the right and % motility at 0.037 μM Ca^2+ drops, whilst the unphosphorylated level is unchanged. We have set a difference between phosphorylated and unphosphorylated >10% as indicating re-coupling activity. This assay method can also be used to construct a dose-response curve as shown. We investigated compounds in 4 categories.
Figure 2 Single [Ca^2+] screen for re-coupling compounds. […] Solid lines, phosphorylated state; dotted lines, unphosphorylated state. Purple lines and points, E180G thin filaments; green lines and points, E180G thin filaments + Quercetin (B) Dose -response curve for quercetin recoupling activity measured at a constant concentration of 0.037 μM Ca^2+. INSET, kinetic analysis of dose response curve; difference between phosphorylated and unphosphorylated states is plotted against quercetin concentration. The Hill equation is fitted to the data, EC50 = 8 μM. (C,D) The effect of 100 μM drug treatment on the difference between % of motility of phosphorylated and unphosphorylated tropomyosin E180G mutant-containing thin filaments at 0.037 μM Ca^2+. (C) EGCG-related molecules (for structures 1–28 see Figure S1 and Table 1). (D) Silybin, related compounds and other HsP90 inhibitors and Ca^2+ desensitizers. The threshold for positive re-coupling was set at a 10% difference (dotted line).

Assay [2] concerns isolated cardiomyocytes from ACTC E99K HCM transgenic mice. The assay can be described thus: Lusitropic effect of dobutamine in isolated cardiomyocytes. Particulars: blunted in ACTC E99K mouse cardiomyocytes; preliminary experiments. In kind it is cell-based.
Text: The main effect of uncoupling of the modulation of Ca^2+ sensitivity by TnI phosphorylation is the loss of the lusitropic response to beta adrenergic stimulation, which is usually accompanied by blunting of the whole physiological adrenergic response.
In a further assay the test system is Hsp90. More on the design: method as in Khandelwal et al., 2013. The note with it: ref Khandelwal et al., 2013; read-out: EC50 Hsp90 inhibition assay; cited from earlier work.
Assay [3] has as its target T2, thin filaments containing E180G tropomyosin (TPM1 E180G, HCM) (Homo sapiens, UniProt P19429+P45379+P63316).
T2 construct: isolate troponin from 100 mg of donor heart tissue; from tissue; host or cells: troponin: human donor heart; tropomyosin: baculovirus/Sf9 (gift); actin: rabbit fast-twitch skeletal muscle
The experiment in a line: IVMA Ca2+-activation curves, TPM1 E180G. In kind it is biochemical. The note with it: phosphorylated and unphosphorylated E180G tropomyosin thin filaments, 25 μM for Quercetin and ECG.
Text: Recombinant human sequence tropomyosin was a gift from Kristen Nowak and Elyshia MacNamara, University, Western Australia. Wild-type α-tropomyosin (Tpm1.1) and mutant E180G tropomyosin were expressed in a baculovirus/Sf9 system (Akkari et al., [2002]; Marston et al., [2013]). Skeletal muscle F-actin and myosin were isolated from rabbit fast-twitch skeletal muscle as previously described (Messer et al., [2007]). TnC G159D mutant troponin was extracted from a mutant human heart sample (Dyer et al., [2009]), E99K mutant cardiac actin was extracted from the E99K transgenic mouse heart (Song et al., [2013]).
as §1
The fraction motile was measured over a range of Ca^2+ concentrations to generate Ca^2+-activation curves. The data were fitted to the 4-variable Hill equation to yield a value for EC50 and nH. Most assays of the effect of compounds are single measurements. […]

[4] abbreviates: dose-response of % motility difference at 0.037 μM Ca2+, Hill fit.

`COc1cc(C2Oc3cc([C@H]4Oc5cc(O)cc(O)c5C(=O)[C@@H]4O)ccc3OC2CO)ccc1O` (stereo partly drawn) [Silybin]: the “Coupling Difference (Initial Screen E180G)” value (shortened to “Coupling Difference”) in assay [1] came out at 12.0%. It took 47 µM to reach a half-maximal effect in assay [1] (setting [4]) (EC50).
In the case of `Oc1ccc(/C=C/c2cc(O)cc(O)c2)cc1` [Resveratrol], the “lusitropic effect of dobutamine, in words” value in assay [2] is recorded as “restored”. Besides, in assay [1], the “Coupling Difference” value came out at 63% and the “re-coupling activity (in words)” value is on record as “effective re-couplers”.
Turning to `COc1cccc(C(=O)OC2COc3cccc(O)c3C2)c1` (stereo not drawn) [compound 4], the concentration giving a half-maximal response (EC50) in the assay with Hsp90 is > 100 µM; in assay [1] (setting [4]), 34 µM. Besides, the “Coupling Difference” value in assay [1] is given as 27.0%.
As to `COc1cc([C@@H]2[C@H]3CO[C@@]4(O)C(=O)[C@@H]2C=C([C@H]2Oc5cc(O)cc(O)c5C(=O)[C@@H]2O)[C@@H]34)ccc1O` [Silydianin], in assay [1], the “Coupling Difference” value is 20%.
As to `COc1cc([C@@H]2Oc3cc(-c4oc5cc(O)cc(O)c5c(=O)c4O)ccc3O[C@H]2CO)ccc1O` [Dehydrosilybin B, 2,3-dehydrosilybin B], the “effect on Ca2+-activation curves (desensitizer / re-coupler), in words” value (shortened to “effect … (desensitizer / re-coupler), in words”) is recorded as “pure recoupling” in assay [3] and “recouples” in assay [3] (listed as dehydrosilybin B). Further, in assay [1], the “Coupling Difference” value turned out to be 62%. In assay [1], the “re-coupling activity (in words)” value is recorded as “restores coupling”. This compound gave an EC50 in assay [1] (setting [4]) of 47 µM.
On to `O=C(O[C@H]1COc2cc(O)cc(O)c2C1)c1cccc(O)c1` [compound 12], for which the EC50 in the assay with Hsp90 is 63 µM. Moreover, the “Coupling Difference” value in assay [1] is given as −1.0%. Moreover, the “nH (Table 6-1, E180G + Drug)” value in assay [1] (Hill coefficient of dose-response of % motility difference, 0.037 µM Ca2+) is reported as “No%Eﬀect”. In addition, in assay [1] (difference between phosphorylated and dephosphorylated TPM1 E180G thin filaments, 0.037 µM Ca2+, Hill fit), the “EC50 (Table 6-1, E180G + Drug)” value was “No%Eﬀect”. Also, the “E180G EC50 % Motility Difference” value in assay [1] (setting [4]) is “No Effect”. In addition, the “Magnitute (% difference)” value in assay [1] (fitted magnitude of dose-response of % motility difference, 0.037 µM Ca2+) is given as “No%Eﬀect”.
As to `COc1cc(OC)cc(C(=O)OC2COc3cc(OC)cc(OC)c3C2)c1` (stereo not drawn) [compound 19], the EC50 in the assay with Hsp90 is 21 µM. For the same compound, in assay [1], the “Coupling Difference” value is 24.0% and the “re-coupling activity (in words)” value is on record as “re-coupler”.
With `COc1cc(/C=C/c2ccc(O)cc2)cc(OC)c1` [Pterostilbene], in assay [1], the “Coupling Difference” value is given as 50% and the “re-coupling activity (in words)” value is “effective re-couplers”.
On to `COc1cc(C2Oc3ccc([C@H]4Oc5cc(O)cc(O)c5C(=O)[C@@H]4O)cc3OC2CO)ccc1O` (stereo partly drawn) [Isosilybin], for which the “Coupling Difference” value in assay [1] was found to be 4%.
On the same count and under the same terms, for `COc1ccc(-c2coc3cc(O[C@@H]4O[C@H](CO)[C@@H](O)[C@H](O)[C@H]4O)cc(O)c3c2=O)cc1` [Sissotrin] the value was 30%.
Consider `O=c1c(O)c(-c2ccc(O)c(O)c2)oc2cc(O)cc(O)c12` [Quercetin], for which the “effect … (desensitizer / re-coupler), in words” value in assay [3] is “typical pure recoupler; also recorded: pure recoupling”. Moreover, the “Coupling Difference” value in assay [1] is on record as 51%. For the same compound, a half-maximal response in assay [1] (setting [4]) (EC50) required 8 µM.
For the compound `O=C1c2c(O)cc(O)cc2OC(c2ccc(O)c(O)c2)C1O` (stereo not drawn) [Taxifolin], the “Coupling Difference” value in assay [1] is recorded as 60%.
Turning to `CO[C@@H]1[C@@H](OC(N)=O)[C@@H](O)[C@H](Oc2ccc3c(O)c(NC(=O)c4ccc(O)c(CC=C(C)C)c4)c(=O)oc3c2C)OC1(C)C` [Novobiocin], the “Coupling Difference” value in assay [1] stood at 46%.
Regarding `COc1ccc(C(=O)OC2COc3cc(OC)cc(OC)c3C2)cc1` (stereo not drawn) [compound 7], in the assay with Hsp90, the concentration for a half-maximal effect (EC50) is 32 µM. Moreover, in assay [1], the “Coupling Difference” value is listed as −11.0% and the “re-coupling activity (in words)” value is “reverse effect”. Also, in assay [1] (setting [4]), the midpoint of the response, the EC50, lay at 67 µM.
For `COc1cc([C@@H]2Oc3c(O)cc([C@H]4Oc5cc(O)cc(O)c5C(=O)[C@@H]4O)cc3[C@H]2CO)ccc1O` [Silychristin], the “Coupling Difference” value in assay [1] is reported as 35%.
On to `Oc1cc(O)c2c(c1)O[C@H](c1cc(O)c(O)c(O)c1)[C@H](O)C2` [Epigallocatechin], for which the “Coupling Difference” value in assay [1] stood at 62%.
As for `COc1cccc(-c2cc(C(=O)OC3COc4cc(O)cc(O)c4C3)ccc2OC)c1` (stereo not drawn) [compound 2], the concentration giving a half-maximal response (EC50) in the assay on Hsp90 is 22 µM. Besides, in assay [1], the “Coupling Difference” value was 27.0% and the “re-coupling activity (in words)” value is reported as “effective re-couplers”. For the same compound, in assay [1] (setting [4]), the EC50 came out at 30 µM.
`O=C(O[C@@H]1Cc2c(O)cc(O)cc2O[C@@H]1c1ccc(O)c(O)c1)c1cc(O)c(O)c(O)c1` [Epicatechin Gallate]: the “effect … (desensitizer / re-coupler), in words” value in assay [3] (listed as ECG) is recorded as “pure desensitizer; also recorded: desensitizer but not a recoupler”. In assay [1], the “Coupling Difference” value is reported as 8%.
Take `Oc1cc(O)c2c(c1)O[C@H](c1cc(O)c(O)c(O)c1)[C@@H](O)C2` [Gallocatechin]: the “Coupling Difference” value in assay [1] is recorded as 68%.
Take `NCCCCCCNS(=O)(=O)c1cccc2c(Cl)cccc12` [W-7]: in assay [1], the “Coupling Difference” value came to 50% and the “re-coupling activity (in words)” value is “effective re-couplers”.
In the case of `COc1cc(OC)c2c(c1)OCC(OC(=O)c1ccc(OC(C)=O)c(CC=C(C)C)c1)C2` (stereo not drawn) [compound 8], the EC50 in the assay with Hsp90 was 38 µM. Moreover, in assay [1], the “Coupling Difference” value is “No Effect” and the “re-coupling activity (in words)” value was “inactive”.
For `COC(=O)N1CCN(Cc2cccc(NC(=O)Nc3ccc(C)nc3)c2F)CC1` [Omecamtiv Mecarbil], in assay [1], the “Coupling Difference” value is 0% and the “re-coupling activity (in words)” value is given as “do not re-couple”.
For `COc1ccc(C(=O)OC2COc3cccc(O)c3C2)cc1` (stereo not drawn) [compound 9], the EC50 is > 100 µM with Hsp90 and 35 µM in assay [1] (setting [4]). The “Coupling Difference” value in assay [1] was determined as 20.0%.
Take `Oc1cc(O)c2c(c1)O[C@H](c1ccc(O)c(O)c1)[C@H](O)C2` [Epicatechin]: in assay [1], the “Coupling Difference” value was 69%.
As to `COc1cc([C@H]2Oc3cc(-c4oc5cc(O)cc(O)c5c(=O)c4O)ccc3O[C@@H]2CO)ccc1O` [Dehydrosilybin A, 2,3-dehydrosilybin A], the “effect … (desensitizer / re-coupler), in words” value in assay [3] is listed as “ineﬀective”. In assay [1], the “Coupling Difference” value turned out to be 3% and the “re-coupling activity (in words)” value is “poor recoupling molecule”.
Take `CCOc1cccc(C(=O)OC2COc3cc(OC)cc(OC)c3C2)c1` (stereo not drawn) [compound 16]: the figures for the EC50 (in the assay on Hsp90; in assay [1] (setting [4])) were 8 µM and 31 µM, respectively. Moreover, in assay [1], the “Coupling Difference” value was 6.0%. Moreover, the “re-coupling activity (in words)” value in assay [1] was “inactive”.
